Laboratory results from patent publication US9676701B2, “Cyclopropylamine derivatives useful as LSD1 inhibitors” (Oryzon Genomics, S.A., priority 2010, dated 2017).
Counter-ions that a name gives are not always drawn. Like-named read-outs stand apart in the source and are kept apart here.

Legend:
MAO-A [1] = target: T1, MAO-A (Homo sapiens (Human), UniProt P21397); conditions: read-out: MAO-A (Ki)
[2] = target: T2, Human recombinant LSD1 protein (Homo sapiens (Human), UniProt O60341); experiment: biochemical
MAO-B [3] = target: T3, MAO-B (Homo sapiens (Human), UniProt P27338); experiment: biochemical
MAO-A [4] = target: T1, MAO-A; experiment: biochemical
[5] = target: T2, Human recombinant LSD1 protein; conditions: for Ki: read-out: LSD1 (Ki)
MAO-B [6] = target: T3, MAO-B; conditions: read-out: MAO-B (Ki)

T3 sequence (P27338 whole entry): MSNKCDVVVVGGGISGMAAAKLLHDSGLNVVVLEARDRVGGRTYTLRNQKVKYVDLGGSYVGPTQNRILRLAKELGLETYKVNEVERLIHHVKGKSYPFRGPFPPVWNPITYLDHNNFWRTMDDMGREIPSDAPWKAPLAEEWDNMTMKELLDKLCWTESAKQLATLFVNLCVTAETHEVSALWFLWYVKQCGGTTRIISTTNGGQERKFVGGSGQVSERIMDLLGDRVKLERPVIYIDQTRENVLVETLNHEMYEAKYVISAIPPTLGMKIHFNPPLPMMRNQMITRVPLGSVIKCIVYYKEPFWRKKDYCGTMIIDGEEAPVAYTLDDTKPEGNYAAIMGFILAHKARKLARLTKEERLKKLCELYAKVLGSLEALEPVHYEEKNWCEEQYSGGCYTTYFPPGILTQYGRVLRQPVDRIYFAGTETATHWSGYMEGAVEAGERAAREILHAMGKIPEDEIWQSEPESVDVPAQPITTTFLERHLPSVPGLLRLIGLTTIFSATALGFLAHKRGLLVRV
T1 sequence (P21397 whole entry): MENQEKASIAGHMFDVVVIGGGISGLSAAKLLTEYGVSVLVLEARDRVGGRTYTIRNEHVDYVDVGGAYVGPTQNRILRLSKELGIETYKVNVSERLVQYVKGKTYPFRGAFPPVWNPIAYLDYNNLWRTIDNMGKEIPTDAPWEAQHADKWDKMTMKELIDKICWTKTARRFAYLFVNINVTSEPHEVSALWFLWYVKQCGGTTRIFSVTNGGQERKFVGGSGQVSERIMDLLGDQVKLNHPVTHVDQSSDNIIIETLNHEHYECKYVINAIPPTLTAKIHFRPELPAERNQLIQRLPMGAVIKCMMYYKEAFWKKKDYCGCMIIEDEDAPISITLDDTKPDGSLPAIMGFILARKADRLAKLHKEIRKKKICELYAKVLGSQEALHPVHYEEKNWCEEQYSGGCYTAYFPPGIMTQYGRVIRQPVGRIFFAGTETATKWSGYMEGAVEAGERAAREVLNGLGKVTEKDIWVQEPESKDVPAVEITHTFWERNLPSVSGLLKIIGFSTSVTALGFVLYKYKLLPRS

Compound | Ki (MAO-A [1]) | Ki [2] | Ki (MAO-B [3]) | Ki (MAO-A [4]) | Ki [5] | Ki (MAO-B [6]) | LSD1 (Ki) [5]
N[C@H]1C[C@@H]1c1ccc(-c2ccc(C(F)(F)F)cc2)nc1 (relative stereo) [Example 9, (trans)-2-(6-(4-(trifluoromethyl)phenyl)pyridin-3-yl)cyclopropanamine hydrochloride] | 1 to 40 µM | 0.1 to 1 µM | 0.001 to 0.1 µM | – | – | – | –
N[C@H]1C[C@@H]1c1ccc(-c2ccc3c(c2)[nH]c2ccccc23)nc1 (relative stereo) [Example 61, (Trans)-2-(6-(9H-carbazol-2-yl)pyridin-3-yl)cyclopropanamine hydrochloride] | 1 to 40 µM | – | – | – | 1 to 40 µM | 1 to 40 µM | –
N[C@H]1C[C@@H]1c1ccc(-c2cccc(C(F)(F)F)c2)nc1-c1ccc(Cl)cc1 (relative stereo) [Example 77, (trans)-2-(2-(4-chlorophenyl)-6-(3-(trifluoromethyl)phenyl)pyridin-3-yl)cyclopropanamine hydrochloride] | 1 to 40 µM | – | – | – | 1 to 40 µM | 1 to 40 µM | –
N[C@H]1C[C@@H]1c1ccc(-c2cccc(C(F)(F)F)c2)nc1-c1ccc(O)cc1 (relative stereo) [Example 78, 4-(3-((trans)-2-aminocyclopropyl)-6-(3-(trifluoromethyl)phenyl)pyridin-2-yl)phenol hydrochloride] | 1 to 40 µM | – | – | – | 1 to 40 µM | 1 to 40 µM | –
NC(=O)c1ccc(-c2nc(-c3cccc(C(F)(F)F)c3)ccc2[C@H]2C[C@@H]2N)cc1 (relative stereo) [Example 79, 4-(3-((trans)-2-aminocyclopropyl)-6-(3-(trifluoromethyl)phenyl)pyridin-2-yl)benzamide hydrochloride] | 1 to 40 µM | – | – | – | 1 to 40 µM | 1 to 40 µM | –
N[C@H]1C[C@@H]1c1ccc(-c2cccc(O)c2)s1 (relative stereo) [Example 113, 3-(5-((trans)-2-aminocyclopropyl)thiophen-2-yl)phenol trihydrochloride] | – | 0.001 to 0.1 µM | 0.1 to 1 µM | 0.1 to 1 µM | – | – | –
Enantiomers of 4′-((trans)-2-aminocyclopropyl)biphenyl-3-ol hydrochloride [Example 63] | 1 to 40 µM | – | – | – | 0.001 to 0.1 µM | 1 to 40 µM | –

More lines, now with the values ahead:

Ki (MAO-A [1]) | Ki [2] | Ki (MAO-B [3]) | Ki (MAO-A [4]) | Ki [5] | Ki (MAO-B [6]) | LSD1 (Ki) [5] | Compound
1 to 40 µM | 0.1 to 1 µM | 0.1 to 1 µM | – | – | – | – | N[C@H]1C[C@@H]1c1ccc(-c2cc(Cl)cc(Cl)c2)nc1 (relative stereo) [Example 6, (Trans)-2-(6-(3,5-dichlorophenyl)pyridin-3-yl)cyclopropanamine hydrochloride]
1 to 40 µM | 0.1 to 1 µM | 0.1 to 1 µM | – | – | – | – | N[C@H]1C[C@@H]1c1ccc(-c2ccc(Cl)cc2)nc1 (relative stereo) [Example 7, (trans)-2-(6-(4-chlorophenyl)pyridin-3-yl)cyclopropanamine hydrochloride]
– | 0.1 to 1 µM | 1 to 40 µM | 1 to 40 µM | – | – | – | COc1ccc(-c2ccc([C@H]3C[C@@H]3N)cn2)cc1 (relative stereo) [Example 10, (trans)-2-(6-(4-methoxyphenyl)pyridin-3-yl)cyclopropanamine hydrochloride]
1 to 40 µM | – | – | – | – | 1 to 40 µM | II-III | CS(=O)(=O)Nc1ccccc1-c1ccc([C@H]2C[C@@H]2N)cc1.Cl (relative stereo) [Example 73, N-(4′-((trans)-2-aminocyclopropyl)biphenyl-2-yl)methanesulfonamide hydrochloride]
1 to 40 µM | – | – | – | – | 1 to 40 µM | II-III | COc1ccc(C#N)cc1-c1ccc([C@H]2C[C@@H]2N)cc1.Cl (relative stereo) [Example 74, 4′-((trans)-2-aminocyclopropyl)-6-methoxybiphenyl-3-carbonitrile hydrochloride]
– | 0.001 to 0.1 µM | 0.1 to 1 µM | 0.1 to 1 µM | – | – | – | CS(=O)(=O)Nc1cc(Cl)cc(-c2ccc([C@H]3C[C@@H]3N)cc2)c1 (relative stereo) [Example 94, N-(4′-((trans)-2-aminocyclopropyl)-5-chloro-[1,1′-biphenyl]-3-yl)methanesulfonamide hydrochloride]
– | 0.1 to 1 µM | 0.1 to 1 µM | – | – | – | – | N[C@H]1C[C@@H]1c1ccc(-c2ccc(-c3ccccc3)cc2)cc1 [Example 2, (trans)-2-(terphenyl-4-yl)cyclopropanamine hydrochloride]
